What was measured:
[1] = system: HCV RNA in OL11 cells (HCV-O strain-derived full-length HCV-genome-replicating cells); assay: Production of cured cells from OL11 cells subcultured for 3 years; format: cell-based; conditions: treated similarly with N-89
Method: (§1) 4×10^5 ORL8 cells were plated onto a 10-cm plate (10 mL of medium in the absence of G418) (Day 1), and N-89 was added so as to achieve a final concentration of 1 μM the next day (Day 2). After 3 days (Day 5), the cells were diluted 10-fold, and N-89 was added again the next day. This operation was repeated an additional four times (N-89 was added six times in total: Days 2, 6, 10, 14, 18, and 22). At the time of the dilution of the cells (Day 13), which was performed 3 days after the third addition of N-89, the cells were divided into two plates with medium in the presence of G418 (neomycin) (0.3 mg/mL) and medium in the absence of G418. Then, N-89 was added three times, a plurality of plates were prepared at the time of the final dilution of the cells, and finally, one of the plates for each of the media was subjected to CBB staining (Day 26).
Further, cells obtained by subculturing HCV-O strain-derived full-length HCV-genome-replicating cells (OL8 cells and OL11 cells) (Kato et al., Virus Res. 146:41-50, 2009) for 3 years (the cells had acquired the status of genetic diversity (called quasispecies) owing to various mutations in an HCV genome caused by the sustained replication of the HCV genome) were used and similarly treated with N-89.

HCV RNA in ORL8 cells = assay: Production of cured cells from ORL8 cells by treatment with N-89; format: cell-based, HCV genotype 1b
Method: A drug treatment method for the cells was performed according to a method with IFN-γ (1,000 IU/mL) (Abe K et al., Virus Res. 125:88-97, 2007) generally used in the production of cured cells by the inventors of the present invention.
as §1
FIG. 14 show the results. […] The ORL8 cells cultured in the medium in the presence of G418 were all killed, whereas the ORL8 cells cultured in the absence of G418 became confluent at a normal proliferation rate. In order to confirm that HCV RNA was eliminated from the cells, Western blot analysis was performed using an anti-HCV core antibody and an anti-HCV NS5B antibody (FIG. 14c). The ORL8 cells were used as a positive control.

[2] = Cytotoxic effect, WST-1 cell proliferation assay in AH1R cells; format: cell-based; conditions: human
From the text: (§2) Assay systems using OR6 cells (HCV-O strain), 1B-4R cells (HCV-1B-4 strain), and AH1R cells (HCV-AH1R strain) as HuH-7 cell-derived full-length HCV-RNA-replicating cells, and ORL8 cells (HCV-O strain), ORL11 cells (HCV-O strain), 1B-4RL cells (HCV-1B-4 strain), and KAH5RL cells (HCV-KAH5 strain) as Li23 cell-derived full-length HCV-RNA-replicating cells were used for the quantitative analysis of anti-HCV activity and evaluation of a cytotoxic effect in the present invention. […] In addition, all the HCV strains belong to genotype 1b.
The WST-1 cell proliferation assay was performed 72 hours after the culture.

1B-4RL cells = assay: Cytotoxic effect, WST-1 cell proliferation assay in 1B-4RL cells; format: cell-based, human; conditions: 72 hours
From the text: as §2
N-89 was added at the concentrations used for the measurement of the luciferase activity, and N-251 was added so as to achieve concentrations of 2 μM, a 2-fold dilution series from 2 μM (1, 0.5, 0.25, 0.13, 0.06, and 0.03 μM), and 0. The WST-1 cell proliferation assay was performed 72 hours after the addition.

OR6 cells = assay: Cytotoxic effect, WST-1 cell proliferation assay in OR6 cells; conditions: OR6 cells, 72 hours, WST-1
From the text: Assay systems using OR6 cells (HCV-O strain), 1B-4R cells (HCV-1B-4 strain), and AH1R cells (HCV-AH1R strain) as HuH-7 cell-derived full-length HCV-RNA-replicating cells, and ORL8 cells (HCV-O strain), ORL11 cells (HCV-O strain), 1B-4RL cells (HCV-1B-4 strain), and KAH5RL cells (HCV-KAH5 strain) as Li23 cell-derived full-length HCV-RNA-replicating cells were used for the quantitative analysis of anti-HCV activity and evaluation of a cytotoxic effect in the present invention. The three cell lines, i.e., the 1B-4R cells, the 1B-4RL cells, and the KAH5RL cells have been disclosed in WO 2010/026965 A1. The AH1R cells may be produced with reference to Mori K et al., BBRC, 371:104-109, 2008 and WO 2010/026965 A1. In addition, all the HCV strains belong to genotype 1b.
In the measurement of the renilla luciferase activity and the measurement by the WST-1 method, experiments were performed in three wells independent of each other, and their means and standard deviation were calculated.
After 24 hours, N-89 was added so as to achieve concentrations of 20 μM, a 2-fold dilution series from 20 μM (10, 5, 2.5, 1.3, 0.63, and 0.31 μM), and 0, or N-251 was added so as to achieve concentrations of 10 μM, a 2-fold dilution series from 10 μM (5, 2.5, 1.3, 0.63, 0.31, and 0.16 μM), and 0.
The cytotoxic effect of artemisinin was examined using OR6 and ORL8 cells and the CC50 values were calculated. […]

KAH5RL cells = assay: Cytotoxic effect, WST-1 cell proliferation assay in KAH5RL cells; format: cell-based, human; conditions: KAH5RL vs ORL8
Method: (§3) The concentrations of N-89 and N-251 were the same as the concentrations used for the measurement of the luciferase activity, and the WST-1 cell proliferation assay was performed 72 hours after the addition.

[3] = as above; format: cell-based, human; conditions: human; KAH5RL cells, 72 hours, WST-1
Method: as §3

Row | Structure (SMILES) | production of cured cells [1] | HCV core protein and NS5B in treated cells (Western blot) (HCV RNA in ORL8 cells; ORL8 cells treated with N-89 1 μM, added six times, Day 26) | treated cells cultured in medium in the presence of G418 (CBB staining) (HCV RNA in ORL8 cells; ORL8 cells, N-89 1 μM, G418 0.3 mg/mL) | production of cured cells (HCV RNA in ORL8 cells; ORL8 cells, N-89 1 μM, added six times) | CC50 at 72 h [2] | CC50 (1B-4RL cells) | CC50 (OR6 cells) | CC50 fold higher in KAH5RL cells than in ORL8 cells (KAH5RL cells) | CC50 at 72 h [3]
1 | C1CCCCCC2(CCCCC1)OOCCCOO2 [N-89, 1,2,6,7-tetraoxaspiro[7,11]nonadecane] | cured cells were able to be produced | none of a core protein and NS5B was detected | all killed | cured cells were able to be produced | ~0.5 µM |  |  |  | 
2 | OCCCCCCC1COOC2(CCCCCCCCCCC2)OOC1 [N-251, 6-(1,2,6,7-tetraoxaspiro[7,11]nonadec-4-yl)] |  |  |  |  |  | 1.9 µM | 3 µM | about 2.5 fold | 3.2 µM

From patent US9289411B2, “Anti-HCV agent” (NATIONAL UNIVERSITY CORPORATION OKAYAMA UNIVERSITY, priority 2011, dated 2016)
